Data on 64 compounds can be found in a melting point compilation (Tetko et al.; mined from patent text by program, amines drawn as free bases though some values may be those of a salt).

The structures appear in SMILES notation.

As to `Cc1ccc(-c2c(NS(=O)(=O)c3ccc(C(C)(C)C)cc3)ncnc2OCCOc2ccc(C(C)O)cc2)cc1` (centres undefined), the melting point – broadly, the temperature, or range, at which the solid turns liquid – was 176 to 178 °C.
To `COC1C(C)OC(ON(C)Cc2ccc(-c3ncn(-c4ccc(OC(F)(F)F)cc4)n3)cc2)C(OC)C1OC` (centres undefined) belongs 93 to 100 °C.
To `FC(F)(F)c1ccc(-c2nccc(Oc3cccc(C(F)(F)F)c3)n2)cc1` belongs 66 to 67 °C; to `O=C(Cc1ccc(OCc2ccccc2)cc1)P(=O)(O)O`, 112 to 113 °C.
To `CC1CC(O)CC2=CCC3C4CCC(=O)C4(C)CCC3C21C` (centres undefined) belongs 167 to 169 °C; to `O=C1C(c2ccc(O)cc2)=C(Br)c2c(O)cc(O)cc21`, 160 to 162 °C; to `C=C(CC1(CC)C(=O)CCC1=O)C1=CCCc2cc(OC)ccc21`, 100 to 125 °C.
As for `COC(=O)Nc1cn2cc(S(=O)(=O)c3ccccc3)ccc2n1`, the melting point was determined as 300 °C.
The compound `CCn1c(=N)c(-c2cc(OC)cc(OC)c2)cc2cnc(SC)nc21` came in with a melting point of 93 to 95 °C.
Turning to `CC(C)C1NC(=O)CN1C(=O)CN` (centres undefined), the melting point fell in the range of 141 to 143 °C.
As for `O=C(Cl)CN1C(=O)C(Cl)=C(Cl)C1=O`, the figure is 102 to 103 °C; as for `O=C(NCCN1C(=O)C2(COc3cc4c(cc32)OCO4)c2ccccc21)c1ccccc1OC(F)(F)F` (centres undefined), 183 to 184 °C; as for `CC(C)(C)OC(=O)NCCCCn1c(-c2ccccc2)nc2c(N)nc3ccccc3c21`, 182 to 183 °C.
`CCCOC1CCC(=O)N1` (centres undefined) showed a melting point of 52 to 54 °C.
Compound `CS(=O)(=O)Nc1ccc(C(=O)O)cc1Oc1ccc(F)cc1F` had a melting point of 167 to 169 °C.
To `Cc1c(C(=O)Nc2cccc(C#N)c2N2CCC(O)CC2)cnn1C` belongs 261 to 262 °C; to `N#CC1CN1C(=O)NC(=O)c1cccs1` (centres undefined), 156 to 160 °C.
As for `Cn1c(C(F)(F)F)cc(=O)n(-c2ccc3snc(-c4sccc4CO)c3c2)c1=O`, the figure is 168 to 169 °C.
The compound `CN1CCC(c2c[nH]c3ccc(Cn4cncn4)cc23)C1` (centres undefined) gave a melting point of 59 to 61 °C.
To `N#Cc1ccccc1-c1ccc(CNC(=S)NN)cc1` belongs 163 to 164 °C.
As to `c1ccc(OCCSCc2nnc(-c3ccc(OCCCN4CCSCC4)cc3)o2)cc1`, the melting point worked out at 85 °C.
To `COc1cc2c(c(-c3cccc(Cl)c3Cl)c1)OC(CN)C2` (centres undefined) belongs 159 to 161 °C; to `COc1ccc(C=O)cc1NC(=O)OCC1c2ccccc2-c2ccccc21`, 139 to 142 °C.
Take `COc1ccc([C@@H]2CC=CC[C@H]2[N+](=O)[O-])cc1OC` (racemic): the melting point lay in the range of 114 to 116 °C.
`N#Cc1c(Br)c(Br)n(Cc2ccccc2)c1-c1ccc(C(F)(F)F)cc1` yielded a melting point of 145 to 147 °C.
In the case of `COc1ccc(-c2cnc(N)c(Cc3ccccc3)n2)cc1`, the melting point is 150 to 153 °C.
To `COc1ccc(F)cc1C(C)(C)CC(O)(Cc1cc(C)cc(C)n1)C(F)(F)F` (centres undefined) belongs 95 to 98 °C.
In turn, `COC(=O)c1cccc(NC(=O)c2ccc(OC)c([N+](=O)[O-])c2)c1` displayed a melting point of 233 to 235 °C.
`NS(=O)(=O)c1ccc(CCNC(=O)CCn2cnc3c(=O)[nH]cnc32)cc1`: the melting point lay within 212 to 216 °C.
To `C=CCN(CC=C)Cc1noc(-c2ncn3c2CN(C)C(=O)c2c(Cl)cccc2-3)n1` belongs 125 to 130 °C; to `Cc1cc(C2=NN(C(=O)NC3CC3)C(C)Cc3cc4c(cc32)OCO4)ccc1[N+](=O)[O-]` (centres undefined), 171 to 175 °C.
As for `CC1(C)CC(N2C(=O)C=CC2=O)CC(C)(C)N1`, the figure is 104 to 111 °C.
To `CC1Cc2c(n(Cc3ccc(Cl)cc3)c3ccc(F)cc23)C(CC(=O)O)C1` (centres undefined) belongs 205 to 206 °C.
The compound `NC(=O)C1COCCN1C1CC1` (centres undefined) had a melting point of 116 °C.
To `CC=C1CCC2C3CCC4CC(O)C(OCC)CC4(C)C3C(=O)CC12C` (centres undefined) belongs 172 to 178 °C; to `COC(=O)C1(c2ccc(OCCN)cc2)CC1`, 119 to 122 °C; to `COc1cc2c(cc1-c1cc(F)ccc1F)NC(=O)CC(c1cccc(C#N)c1)=N2`, 251 °C.
As to `CSc1sc(C(=O)O)c2c1-c1nc(C)sc1CC2`, the melting point was 273 to 274 °C.
Compound `CC1CCN(c2nccc(Oc3ccc(NC(=O)c4cc(F)cc(N5CCOCC5)c4)c4ccccc34)n2)CC1` displayed a melting point of 117 to 118 °C.
To `Cc1c(CO)nc(-c2ccc(C(F)(F)F)cc2)n1C` belongs 152 °C; to `CNc1nc(C)c(C)cc1NC(=O)N1CCN(c2cc(OC)cc(OC)c2)CC1`, 150 to 151 °C.
To `O=C(O)Cc1cc(Cl)c2c(c1)CCC(C(F)(F)F)N2` (centres undefined) belongs 110 to 112 °C; to `CSc1c(F)cc(C(=O)CBr)cc1F`, 30.5 to 33.2 °C; to `Cc1nc2c3c(c(C(=O)N4CCC4)cc2n1C)CCC(c1ccccc1)O3` (centres undefined), 241 to 242 °C.
On to `COc1cc(OC)c2c(=O)[nH]c(-c3cc(C)c(OC)c(C)c3)cc2n1`, for which the melting point is 262 to 263 °C.
`O=C(NCc1ccc(Cl)cc1)c1cnc2cc(I)ccc2c1O`: the melting point lay within 248 to 250 °C.
To `C=CCONC(=O)c1nc(-c2ccc(C)cc2)cc(N)c1Cl` belongs 177 to 179 °C.
Regarding `CCOC(=O)N1CCN(C2=Nc3cc(Br)ccc3N3CCc4cccc2c43)CC1`, the melting point fell in the range of 128 to 131 °C.
As for `O=C(O)Cc1cc(C(=O)c2ccccc2F)ccc1O`, the figure is 102 °C; as for `CCc1cccc2c1C(=O)NS2(=O)=O`, 183 to 185 °C; as for `CN1CCCC2C(=NO)CCCC21` (centres undefined), 169 to 171 °C.
As for `O=c1c2ccccc2nc(-c2sc(Nc3ccccc3)nc2-c2ccccc2)n1-c1ccc(Cl)cc1`, the figure is 218 to 222 °C.
As for `NC(=S)Cc1cccc(-c2nc(=O)c3ccccc3s2)n1`, the figure is 257 °C.
As to `O=c1c(Cl)c(OCc2ccc(F)cc2F)ccn1Cc1ccc2c(c1)CCN2`, the melting point was 137 to 139 °C.
To `CNC(=O)C(Cc1ccc(OC)cc1)NC(=O)C(=CCC(=O)OC)CC(C)C` (centres undefined) belongs 142 to 144 °C.
Consider `CC(C)n1c(=O)nc(-c2cccnc2)c2cc3c(cc21)OCO3`, for which the melting point lay within 58 to 60 °C.
As to `Cc1ccc(C(=O)c2cccc3c2CCC3C(N)=O)cc1` (centres undefined), the melting point lay in the range of 188 to 191 °C.
As for `O=c1oc2cc(Br)ccc2c(O)c1[N+](=O)[O-]`, the figure is 155 to 157 °C; as for `COc1ccc(-c2c(Cl)c(CN3C(=O)CCC3=O)nc3sc4c(F)c(OC)ccc4c23)cc1`, 215 to 216 °C; as for `OC(COc1ccc(-n2cncn2)cc1)CN1CCN(c2ccc(F)cc2)CC1` (centres undefined), 149 to 150 °C.
Compound `COc1cc(Nc2c(C#N)cnc3cc(-c4ccc(CN5CCN(C)CC5)s4)ccc23)c(Cl)cc1Cl` yielded a melting point of 206 to 208 °C.
To `NN(C(=O)c1c(F)cccc1Cl)c1ccccc1C(F)(F)F` belongs 147 to 148 °C; to `CCCN(CC1CC1)c1nc(C)[nH]c2c(-c3ccc(Cl)cc3Cl)nc(C)c1-2`, 66 to 68 °C; to `CCCOc1cc2ccccc2c2c(=O)c(-c3ccc(OC)cc3)c(C)[nH]c12`, 204 to 206 °C.
